# Experimental data from patent publication US7160867B2 (Isotechnika, Inc., priority 2003, dated 2007).
# Entries after “also recorded” stand apart in the source; their conditions may differ.
# Tests used:
# [1] = Stability toward hydrolysis in acidic media; format: physicochemical; details: 70/30 methanol/0.1N HCl (pH 1.5); free rapamycin by HPLC at 1 hour
# [2] = Hydrolysis of rapamycin carbohydrate derivatives in human whole blood; format: in vitro ADME; details: spiked in human whole blood; free rapamycin by HPLC at 1 hour
# [3] = system: primary blood lymphocyte cultures (PBMC); assay: In vitro immunosuppressive activity, PBMC proliferation (alamar blue); format: cell-based; details: 3-day culturing, FIG. 5
# [4] = Pharmacokinetic profiles in rats after oral dosing (rapamycin in whole blood by LC/MS); format: in vivo, Sprague Dawley rats; details: 2.5 or 10 mg/kg
# Procedure: The pharmacokinetic profiles in rats of selected rapamycin carbohydrate derivatives were determined to investigate the ability of the derivatives to deliver free rapamycin into the bloodstream in vivo. […] Whole blood was extracted via jugular bleed over 24 hours and frozen at −20° C. until analysis. Whole blood was analyzed by Liquid Chromatography Mass Spectrometry for the presence of rapamycin.
# Sprague-Dawley rats = assay: Serum cholesterol levels in rats; format: in vivo; details: 2.5 mg/kg/day for 12 days
# Procedure: Cholesterol levels were measured at the 24-hour trough level on day 11.
# [5] = system: heterotopic heart allografts; assay: Graft survival of heterotopic heart allografts in rats; format: in vivo, Wistar Furth rats to Lewis rats
# Text: If graft dysfunction was noted during the 30-day post-transplantation period, the animal was sacrificed. If the animal survived longer than 30 days post-transplantation, the test and control articles were discontinued and the animal was allowed to continue until graft dysfunction or up to 100 days post-transplantation.
# washed human platelets = assay: Washed human platelet aggregation assay; details: 25 μg/ml, 2 μM ADP, after 8 minutes, FIG. 11
# Beagle dogs = assay: Gastrointestinal tolerability in beagle dogs
# [6] = in plasma and in low and neutral pH buffers at 37° C.; cited from earlier work
# [7] = [14C]-rapamycin, healthy male volunteers; cited from earlier work
# [8] = 2.5 mg/kg/day oral gavage, day -3 to day 30, N = 6 (derivative n = 5)
smiles,measurement,setting,value
CO[C@H]1C[C@@H]2CC[C@@H](C)[C@@](O)(O2)C(=O)C(=O)N2CCCC[C@H]2C(=O)O[C@H]([C@H](C)C[C@@H]2CC[C@@H](OC(=O)OCC3(O)OC[C@@H](O)[C@@H](O)[C@@H]3O)[C@H](OC)C2)CC(=O)[C@H](C)/C=C(\C)[C@@H](O)[C@@H](OC)C(=O)[C@H](C)C[C@H](C)/C=C/C=C/C=C/1C (stereo partly drawn) [42-O-(D-Fructosylcarbonyl)rapamycin],Extent of Hydrolysis (%),[1],<1%
same,Extent of Hydrolysis (%),[2],28 ± 2%
same,cell proliferation inhibition / immunosuppressive activity,[3],equivalent to rapamycin
same,time to maximum concentration of rapamycin in blood,[4]; FIG. 6,approximately 3 hours
same,serum cholesterol level relative to vehicle control group,"Sprague-Dawley rats; 24-hour trough on day 11, FIG. 9",not significantly different
same,serum cholesterol level relative to rapamycin group,"Sprague-Dawley rats; 24-hour trough on day 11, p<0.01, FIG. 9",significantly lower
same,prolonged survival of the graft over the vehicle control,[5]; 2.5 mg/kg/day,214%
same,Average Survival Time (days post-transplant) Mean ± SEM,[5]; [8],41 ± 4 days post-transplant
same,prolonged survival of the graft over the vehicle control,[5]; 10 mg/kg/day,341%
same,Average Survival Time (days post-transplant) Mean ± SEM,"[5]; 10 mg/kg/day oral gavage, day -3 to day 30, N = 6",57 ± 4 days post-transplant
same,platelet aggregation,washed human platelets,does not exhibit a measurable effect
same,Observations,"Beagle dogs; beagle dog 4, oral dose 1 mg/kg, rapamycin given one week after the derivative, 1 mg/kg",Lethargic; also recorded: Recovered
same,Observations,"Beagle dogs; beagle dog 4, oral dose 1 mg/kg, rapamycin given one week after the derivative, listed as 42-O-(D-fructosylcarbonyl)rapamycin, 1 mg/kg",slight lethargy
same,Observations,"Beagle dogs; beagle dogs, single oral dose 10 mg/kg, 10 mg/kg",Normal
same,Observations,"Beagle dogs; beagle dogs, single oral dose 10 mg/kg, listed as 42-O-(D-fructosylcarbonyl)rapamycin, 10 mg/kg",no overt physical changes
CO[C@H]1C[C@@H]2CC[C@@H](C)[C@@](O)(O2)C(=O)C(=O)N2CCCC[C@H]2C(=O)O[C@H]([C@H](C)C[C@@H]2CC[C@@H](O)[C@H](OC)C2)CC(=O)[C@H](C)/C=C(\C)[C@@H](OC(=O)OCC2(O)OC[C@@H](O)[C@@H](O)[C@@H]2O)[C@@H](OC)C(=O)[C@H](C)C[C@H](C)/C=C/C=C/C=C/1C (stereo partly drawn) [31-O-(D-Fructosylcarbonyl)rapamycin],Extent of Hydrolysis (%),[1],<1%
same,Extent of Hydrolysis (%),[2],23 ± 0.5%
CO[C@H]1C[C@@H]2CC[C@@H](C)[C@@](O)(O2)C(=O)C(=O)N2CCCC[C@H]2C(=O)O[C@H]([C@H](C)C[C@@H]2CC[C@@H](O)[C@H](OC)C2)CC(=O)[C@H](C)/C=C(\C)[C@@H](O)[C@@H](OC)C(=O)[C@H](C)C[C@H](C)/C=C/C=C/C=C/1C [Rapamycin],time to maximum concentration of rapamycin in blood,[4]; FIGS. 6 and 7,approximately 30 minutes
same,Average Survival Time (days post-transplant) Mean ± SEM,[5]; [8],39 ± 4 days post-transplant
same,half-life of degradation,[6],less than 10 hours
same,share of the total radioactivity in blood,[7],approximately 35%
